We go through 6 compounds from publication PMC7503370, “Cellular Signaling and Anti-Apoptotic Effects of Prolactin-Releasing Peptide and Its Analog on SH-SY5Y Cells” (International Journal of Molecular Sciences, 2020).

Holding throughout (assay type): cell-based, human
For assay [1], the system named is PI3K/Akt signaling pathway in SH-SY5Y cells. Kind of assay: Western blotting of PI3K/Akt signaling pathway after 8 min incubation. The settings on record: 37 °C. The method, then: Figure 1 Prolactin-releasing peptide 31 (PrRP31) and palm^11-PrRP31 increased phosphoinositide-3 kinase (PI3K/Akt) signaling pathway in SH-SY5Y cells. Immunoblots: (a) and their quantifications: (b). SH-SY5Y cells were incubated either with PrRP31 and its palmitoylated analog and scrambled at a final concentration 1 × 10^-5 M, or with insulin at the final concentration 1 × 10^−7 M at 37 °C for 8 min, or medium alone (control). Activation was expressed as the ratio of the activated protein to the total amount of the protein, both normalized to loading control, glyceraldehyde 3-phosphate dehydrogenase (GAPDH). Data are presented as the means ± SEM as a percentage of control cells analyzed by one-way ANOVA followed by the Dunnett post hoc test, * p < 0.5, ** p < 0.01, **** p < 0.0001 (n = 3, each sample in triplicates).
(§1) For the investigation of the molecular mechanism of PrRP31 and its analog in the cells, signaling pathways were studied by Western blotting (WB). The cells were cultured in 6-well plates at a density of 800,000 cells per well. Growth medium was exchanged for serum-free DMEM 16 h before an experiment, and then, the cells were incubated with PrRP31, palm^11-PrRP31, or scrambled peptide at a final concentration of 1 × 10^−5 M or insulin at a concentration of 1 × 10^−7 M at 37 °C for 8 min. The cells were rapidly cooled on ice and lysed in 400 µl of Laemmli sample buffer (62.5 mM Tris-HCl with pH 6.8, 2% SDS, 10% glycerol, 0.01% bromophenol blue, 5% mercaptoethanol, 50 mM NaF, and 1 mM Na3VO4) and stored at −20 °C. Afterward, the cell lysates were analyzed by WB. SDS-electrophoresis and WB were carried out using a Criterion system with a 26-well 4−15% Criterion^TM TGX^TM Precast Midi Protein Gel (Bio-Rad, Hercules, CA, USA) at a constant voltage of 200 V or 100 V, respectively.
(§2) Subsequently, the membranes were incubated overnight with primary antibody (Ab) at 4 °C, according to the manufacturer´s instructions (Table 2). The next day, the membranes were incubated with an HRP-linked secondary antibody for 1 h at room temperature. Chemiluminescence was visualized with a ChemiDoc^TM System (Bio-Rad). Band intensities were normalized using glyceraldehyde 3-phosphate dehydrogenase (GAPDH) as an internal loading control.
(§3) Eight minutes of incubation was performed in a series of experiments with different exposure times (5, 10, 15, 30, and 60 min) to PrRP31 and its palmitoylated analog. Activation of analogs was strongest after 10 min. Then, the cells were treated with inhibitors of signaling pathways for 2 min, and analogs were added for 8 min. The time of exposure was set to 8 min to ensure that the incubation time for PrRP31 and its palmitoylated analog was the same. The controls and compounds were tested in triplicate in three independent experiments. The PI3K/Akt pathway is one of the main signaling pathways of insulin; therefore, insulin was used as a positive control. Scrambled peptide was used as a negative control. Activation is expressed as the ratio of the activated protein to the total amount of the protein. GAPDH was used as a loading control.
(A western blot detects proteins with antibodies after separation by electrophoresis.)

Assay [2] has as its system p-m-Tor, p-GSK-3β, p-ERK, p-CREB in SH-SY5Y cells. Kind of assay: Western blotting with selective inhibitors of signaling pathways. The method, then:
Immunoblots with PrRP31 and palm^11-PrRP31: (a) and insulin: (b) and their quantifications: (c). SH-SY5Y cells were incubated firstly with selective inhibitors for 2 min and then either with PrRP31 and its palmitoylated analog at a final concentration 1 × 10^−5 M, or with insulin in the final concentration 1 × 10^−7 M at 37 °C for 8 min, or alone in serum-free medium. Activated protein was normalized to loading control, GAPDH. Data are presented as the means ± SEM as a percentage of control cells treated with medium alone. Analysis is made between groups as shown in the graph by a Student’s t-test, * p < 0.5, ** p < 0.01, *** p < 0.001(each sample in triplicates).
as §3
For further research, inhibitors of signaling pathways were used. The growth medium was exchanged for serum-free DMEM 16 h before the experiment. On the day of the experiment, cells were incubated for 2 min with rapamycin, SB216736 or U0126 at a final concentration of 1 × 10^−6 M; then, PrRP31, palm^11-PrRP31 or scrambled peptide at a final concentration of 1 × 10^−5 M or insulin at a concentration of 1 × 10^−7 M was added for 8 min. The plates were stored at 37 °C. The controls and compounds were tested in triplicate.

The subject of assay [3] is Tau protein phosphorylation in SH-SY5Y cells. The experiment in a line: Western blotting of Tau phosphorylation in MG-stressed cells. The settings on record: 0.6 mM MG 16 h vs control cells. The method, then: (§4) Figure 8 PrRP31 and palm^11-PrRP31 attenuate Tau hyperphosphorylation at the epitope Ser396 in SH-SY5Y. Immunoblots with: (a) and their quantifications: (b). SH-SY5Y cells were pretreated with PrRP31 and palm^11-PrRP31 at a concentration of 1 × 10^−5 M for 4 h and then stressed with 0.6 mM MG for 16 h. Activation was expressed as the ratio of the activated protein to the total amount of the protein, both normalized to loading control, GAPDH. Data are presented as the means ± SEM as a percentage of control cells treated with medium alone. Analysis is made vs. MG by a Student’s t-test, * p < 0.5, ** p < 0.01 (each sample replicate in triplicate).
as §1, §2
(§5) For analysis of the molecular mechanism during MG stress, the growth medium was exchanged for serum-free DMEM 16 h before the experiment. The cells were pretreated with 1 × 10^−5 M PrRP31 or palm^11-PrRP31 for 4 h; then, MG was added to a final concentration of 0.6 mM, and the cells were incubated at 37 °C for 16 h. The controls and compounds were tested in triplicate.

Assay [4] relates to p-c-Jun, p-ERK, p-Bad, Bax/Bcl-2 in SH-SY5Y cells. Kind of assay: Western blotting of anti-apoptotic signaling in MG-stressed cells. The settings on record: 0.6 mM MG 16 h vs control cells. The method, then:
as §4, with “7” for “8”, “affected anti-apoptotic signaling” for “attenuate Tau hyperphosphorylation at the epitope Ser396”, “SH-SY5Y cells. Immunoblots:” for “SH-SY5Y. Immunoblots with:”, “sample” for “sample replicate”, “triplicates).” for “triplicate).”
as §1, §2, §5

[5] abbreviates: PrRP31 and palm^11-PrRP31 1 × 10^−5 M, insulin 1 × 10^−7 M, 37 °C, 8 min.
The mark [6] stands for this setting: inhibitor 1 × 10^−6 M for 2 min, then peptide for 8 min, under the control level.

As to “insulin: human insulin used as a positive control”, in assay [1] (positive control, 1 × 10^−7 M), the “activation of proteins of the insulin signaling cascade” value is “significantly activated”. In assay [2] (setting [5]), the “p-CREB after incubation with peptide, no inhibitor” value is given as “increased” and the “p-ERK after incubation with peptide, no inhibitor” value is “increased”. The “p-m-Tor (Ser2448) after application of peptide, no inhibitor” value in assay [2] (PrRP31 and palm^11-PrRP31 1 × 10^−5 M, insulin 1 × 10^−7 M, 37 °C, 8 min, normalized to GAPDH, triplicates) is recorded as “significantly increased”. The “p-GSK-3β (Ser9) after incubation with peptide, no inhibitor” value in assay [2] (palm^11-PrRP31 1 × 10^−5 M, insulin 1 × 10^−7 M, 37 °C, 8 min, normalized to GAPDH, triplicates) is on record as “slight increase”.
For “GHFTHSIRMI K^11 (γ-E (N-palm))TPRNASVYARPCitDWWGICitPES [scrambled-palm^11-PrRP31]”, the “effect on the PI3K/Akt pathway” value in assay [1] (negative control, 1 × 10^-5 M) was “did not significantly affect”.
On to `Cn1cc(C2=C(c3ccc(Cl)cc3Cl)C(=O)NC2=O)c2ccccc21` [SB216736], for which the “effect on the level of p-GSK-3β (Ser9) in cells treated with insulin” value in assay [2] (inhibitor 1 × 10^−6 M for 2 min, then insulin 1 × 10^−7 M for 8 min) was “tended to decrease”. Further, in assay [2] (inhibitor 1 × 10^−6 M for 2 min, then palm^11-PrRP31 1 × 10^−5 M for 8 min), the “effect on the palm^11-PrRP31-induced increase of p-GSK-3β (Ser9)” value was “significantly reversed”.
As to `CO[C@H]1C[C@@H]2CC[C@@H](C)[C@@](O)(O2)C(=O)C(=O)N2CCCC[C@H]2C(=O)O[C@H]([C@H](C)C[C@@H]2CC[C@@H](O)[C@H](OC)C2)CC(=O)[C@H](C)/C=C(\C)[C@@H](O)[C@@H](OC)C(=O)[C@H](C)C[C@H](C)/C=C/C=C/C=C/1C` [rapamycin, Rapamycin], in assay [2] (setting [6]), the “effect on the increase of p-m-Tor (Ser2448) by PrRP31, palm^11-PrRP31 and insulin” value was “inhibited”.
As for `N#CC(=C(/N)Sc1ccccc1N)/C(C#N)=C(/N)Sc1ccccc1N` [U0126], the “effect on the increase of p-ERK and p-CREB by PrRP31, palm^11-PrRP31 and insulin” value in assay [2] (setting [6]) is listed as “significantly blocked”.
`CC(=O)C=O` [MG, methylglyoxal, reference compound]: in assay [3], the “Tau phosphorylation at Ser198/199/202 (Tau 1)/Tau 5 after MG” value is reported as “tended to increase” and the “Tau phosphorylation at Ser396 after MG” value is “increased”. Besides, in assay [4], the “level of p-Bad (Ser112)/Bad after MG” value is recorded as “increased”, the “level of p-Bad (Ser136)/Bad after MG” value is “increased” and the “level of p-c-Jun (Ser73)/c-Jun after MG” value is listed as “increased”.
